Results: patent publication US11965039B2, “Compstatin analogues and their medical uses” (priority 2018, dated 2024)
Where two headings read alike, the source gives them in different places. Starred links: 1 amine or outer side, 2 acyl side, 3 side chain; linkers in the order of their positions; H or OH if unused. Positions of bridges follow the written chain, without caps; N, C: chain ends. Non-standard residues stand in square brackets, D forms with d. Residues, ends and D or L forms follow the SMILES beside them. Groups on a side chain read outwards from the residue. *: point of attachment. Trp(1-Me) = Cn1cc(C[C@H](N)C(=O)O)c2ccccc21; C18 diacid = O=C(O)CCCCCCCCCCCCCCCCC(=O)*; C16 diacid = O=C(O)CCCCCCCCCCCCCCC(=O)*; γGlu = O=C(O)[C@H](CCC(=O)[*:2])N[*:1]; AEEA = NCCOCCOCC(=O)O; Sar = CNCC(=O)O

Assays:
[1] = Solubility test at 10 mg/mL (visual inspection and light scattering); format: physicochemical
Method: The solubility of compounds was assessed by measuring light scattering over a pH interval from pH 4 to pH 7.5.
Compounds were dissolved in a stock solution of 20 mg/mL in H2O at pH 2.5 or pH 10. These stock solutions were diluted 1:1 with 200 mM buffered solution to reach a final solution of 10 mg/mL compound in 100 mM buffer. The 5 investigated conditions were (1) acetate pH 4.0, (2) acetate pH 5.0, (3) phosphate pH 6.0, (4) phosphate pH 7 and (5) phosphate pH 7.5.
Visual inspection included manually checking the 96 well plate for wells that are clear or non-clear. In addition to this a picture of the 96 well plate is taken.
Absorbance was measured at four wavelengths: 280 nm, 325 nm, 340 nm and 360 nm in an UV transparent 96 well microplate in a SpectraMax 190 microplate reader (Molecular Devices).
The criteria for this was a combination of visual inspection and light scattering not exceeding 0.1 AU, where values below 0.1 AU are good in visually clear samples.

[2] = tested on: classical complement pathway; test: In vitro haemolysis assay (inhibition of classical complement pathway); format: cell-based, human; details: human serum, sensitized sheep red blood cells
Procedure, shortened: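 Compound dilutions preincubated 15 min at room temperature with diluted human serum (titrated per batch for 70-90% maximal haemolysis), then antibody-sensitized sheep RBC (10^7/well) added for 30 min at 37 °C in Tris/casein buffer, pH 7.4. Stopped with EDTA; haemolysis read at 405 nm; IC50 by 4PL fit.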

[3] = Table 3, given as upper bounds, read-out: IC50, inhibition of hemolysis
[4] = Table 4, valine 3 vs isoleucine 3 pairs, read-out: CP hemolysis IC50

## CC[C@H](C)[C@H](NC(C)=O)C(=O)N[C@H]1CSSC[C@@H](C(=O)N[C@H](C(=O)N[C@@H](CCC(=O)O)C(=O)NCC(=O)N[C@@H](CCC(=O)O)C(N)=O)[C@@H](C)O)NC(=O)[C@H](CCCNC(=N)N)NC(=O)[C@H](Cc2c[nH]cn2)NC(=O)[C@H](CCC(=O)O)NC(=O)CNC(=O)[C@H](Cc2c[nH]c3ccccc23)NC(=O)[C@H](CC(=O)O)NC(=O)[C@H](CCC(N)=O)NC(=O)[C@H](Cc2c[nH]c3ccccc23)NC(=O)[C@H]([C@@H](C)CC)NC1=O [Compound 24] (Ac-ICIWQDWGEHRCTEGE-NH2; disulfide 2-12)
[1]; Acetate pH 4
  Solubility, Condition 1: − (“−” denotes lack of solubility at the given condition, as UV absorbance at 340 nm exceeds 0.1 AU and/or it is visibly turbid or contains particles)
[1]; Acetate pH 5
  Solubility, Condition 2: − (“−” denotes lack of solubility at the given condition, as UV absorbance at 340 nm exceeds 0.1 AU and/or it is visibly turbid or contains particles)
[1]; Phosphate pH 6
  Solubility, Condition 3: − (“−” denotes lack of solubility at the given condition, as UV absorbance at 340 nm exceeds 0.1 AU and/or it is visibly turbid or contains particles)
[1]; Phosphate pH 7
  Solubility, Condition 4: + (“+” denotes solubility at the given condition, as determined by UV absorbance being less than 0.1 AU at 340 nm and the sample being clear when manually inspected)
  Solubility, condition 4: good
[1]; Phosphate pH 7.5
  Solubility, Condition 5: + (“+” denotes solubility at the given condition, as determined by UV absorbance being less than 0.1 AU at 340 nm and the sample being clear when manually inspected)
  Solubility, condition 5: good
[1]; acetate pH 4.0, visual inspection and absorbance
  Solubility, Condition 1: cloudy
[1]; acetate pH 5.0, visual inspection and absorbance
  Solubility, Condition 2: cloudy
[1]; phosphate pH 6.0, visual inspection and absorbance
  Solubility, Condition 3: cloudy
[2]; [3]
  IC50: < 0.1 µM
[2]; [4]
  IC50: 0.09 µM

## CC[C@H](C)[C@H](NC(=O)[C@H](C)NC(=O)[C@H](CO)NC(=O)CNC(=O)[C@H](CCC(=O)O)NC(C)=O)C(=O)N[C@H]1CSSC[C@@H](C(=O)N(C)CC(=O)N[C@@H](CCC(=O)O)C(N)=O)NC(=O)[C@H](CCCNC(=N)N)NC(=O)[C@H](Cc2c[nH]cn2)NC(=O)[C@H](CCC(=O)O)NC(=O)CNC(=O)[C@H](Cc2c[nH]c3ccccc23)NC(=O)[C@H](CC(=O)O)NC(=O)[C@H](CCC(N)=O)NC(=O)[C@H](Cc2c[nH]c3ccccc23)NC(=O)[C@H](C(C)C)NC1=O [H, reference compound] (Ac-EGSAICVWQDWGEHRC[Sar]E-NH2; disulfide 6-16)
[2]; [4]
  IC50: 0.33 µM

## CC[C@H](C)[C@@H]1NC(=O)[C@@H](NC(=O)CN(C)C(=O)[C@H](CCC(=O)O)NC(=O)CNC(C)=O)CSSC[C@@H](C(=O)N[C@H](C(=O)N[C@@H](CCC(=O)O)C(=O)N[C@@H](C)C(N)=O)[C@@H](C)O)NC(=O)[C@H](CCCNC(=N)N)NC(=O)[C@H](Cc2c[nH]cn2)NC(=O)[C@H](CCC(=O)O)NC(=O)CNC(=O)[C@H](Cc2c[nH]c3ccccc23)NC(=O)[C@H](CC(=O)O)NC(=O)[C@H](CCC(N)=O)NC(=O)[C@H](Cc2cn(C)c3ccccc23)NC1=O [Compound 88] (Ac-GE[Sar]CI[Trp(1-Me)]QDWGEHRCTEA-NH2; disulfide 4-14)
[2]; [3]
  IC50: < 0.1 µM

## CC[C@H](C)[C@H](NC(=O)[C@H](C)NC(=O)[C@H](CO)NC(C)=O)C(=O)N[C@H]1CSSC[C@@H](C(=O)N[C@H](C(=O)N[C@@H](CCC(=O)O)C(=O)NCC(N)=O)[C@@H](C)O)NC(=O)[C@H](CCCNC(=N)N)NC(=O)[C@H](Cc2c[nH]cn2)NC(=O)[C@H](CCC(=O)O)NC(=O)CNC(=O)[C@H](Cc2c[nH]c3ccccc23)NC(=O)[C@H](CC(=O)O)NC(=O)[C@H](CCC(N)=O)NC(=O)[C@H](Cc2c[nH]c3ccccc23)NC(=O)[C@H]([C@@H](C)CC)NC1=O [Compound 42] (Ac-SAICIWQDWGEHRCTEG-NH2; disulfide 4-14)
[2]; [3]
  IC50: < 0.25 µM

## CC[C@H](C)[C@@H]1NC(=O)[C@@H](NC(=O)[C@H](Cc2ccc(O)cc2)NC(=O)[C@H](C)NC(=O)[C@H](CO)NC(=O)CNC(=O)[C@H](CCC(=O)O)NC(C)=O)CSSC[C@@H](C(=O)N(C)CC(=O)N[C@@H](CCC(=O)O)C(=O)NCC(=O)N[C@@H](CCCCN)C(=O)N[C@@H](CCCCNC(=O)CC[C@H](NC(=O)CNC(=O)CC[C@H](NC(=O)CCCCCCCCCCCCCCCCC(=O)O)C(=O)O)C(=O)O)C(N)=O)NC(=O)[C@H](CCCNC(=N)N)NC(=O)[C@H](Cc2c[nH]cn2)NC(=O)[C@H](CCC(=O)O)NC(=O)CNC(=O)[C@H](Cc2c[nH]c3ccccc23)NC(=O)[C@H](CC(=O)O)NC(=O)[C@H](CCC(N)=O)NC(=O)[C@H](Cc2cn(C)c3ccccc23)NC1=O [Compound 110] (Ac-EGSAYCI[Trp(1-Me)]QDWGEHRC[Sar]EGKK([γGlu-Gly-γGlu-C18 diacid])-NH2; disulfide 6-16)
[2]; [3]
  IC50: < 0.25 µM

## CC[C@H](C)[C@H](NC(=O)[C@H](C)NC(=O)[C@H](CO)NC(=O)CNC(=O)[C@H](CCCCNC(=O)COCCOCCNC(=O)COCCOCCNC(=O)CC[C@H](NC(=O)CCCCCCCCCCCCCCC(=O)O)C(=O)O)NC(C)=O)C(=O)N[C@H]1CSSC[C@@H](C(=O)N[C@H](C(=O)N[C@@H](CCC(=O)O)C(=O)NCC(=O)N[C@@H](CCC(=O)O)C(N)=O)[C@@H](C)O)NC(=O)[C@H](CCCNC(=N)N)NC(=O)[C@H](Cc2c[nH]cn2)NC(=O)[C@H](CCC(=O)O)NC(=O)CNC(=O)[C@H](Cc2c[nH]c3ccccc23)NC(=O)[C@H](CC(=O)O)NC(=O)[C@H](CCC(N)=O)NC(=O)[C@H](Cc2c[nH]c3ccccc23)NC(=O)[C@H]([C@@H](C)CC)NC1=O [Compound 100] (Ac-K([AEEA-AEEA-γGlu-C16 diacid])GSAICIWQDWGEHRCTEGE-NH2; disulfide 6-16)
[2]; [3]
  IC50: < 0.5 µM

## CC[C@H](C)[C@@H]1NC(=O)[C@@H](NC(=O)[C@H](Cc2ccc(O)cc2)NC(=O)[C@H](CCC(=O)O)NC(=O)[C@H](CO)NC(C)=O)CSSC[C@@H](C(=O)N(C)CC(=O)N[C@@H](CCC(=O)O)C(=O)NCC(=O)N[C@@H](C)C(=O)N[C@@H](CCCCNC(=O)CC[C@H](NC(=O)CNC(=O)CC[C@H](NC(=O)CCCCCCCCCCCCCCCCC(=O)O)C(=O)O)C(=O)O)C(N)=O)NC(=O)[C@H](CCCNC(=N)N)NC(=O)[C@H](Cc2c[nH]cn2)NC(=O)[C@H](CCC(=O)O)NC(=O)CNC(=O)[C@H](Cc2c[nH]c3ccccc23)NC(=O)[C@H](CC(=O)O)NC(=O)[C@H](CCC(N)=O)NC(=O)[C@H](Cc2cn(C)c3ccccc23)NC1=O [Compound 112] (Ac-SEYCI[Trp(1-Me)]QDWGEHRC[Sar]EGAK([γGlu-Gly-γGlu-C18 diacid])-NH2; disulfide 4-14)
[2]; [3]
  IC50: < 0.5 µM
